Where “and” joins values, the source holds several entries; their conditions need not be identical. Identical values can stand only once.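 Each compound was tested at five concentrations against cells in 96-well plates for 48 hours. GI50 marks 50% less growth. TGI marks complete inhibition of growth.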

Among the test systems are UACC-62 melanoma; LOX IMVI melanoma; HL-60(TB) leukemia; K-562 leukemia; EKVX NSCLC; HCT-15 colon; HOP-62 NSCLC; SF-539 CNS; TK-10 renal; A498 renal.
Common to all, as to assay: growth of human tumour cells (NCI), 48 h

Regarding `Cc1cccc(C)c1CO`, the TGI in the experiment with UACC-62 melanoma, in the experiment with LOX IMVI melanoma, in the experiment with HL-60(TB) leukemia, in the experiment on K-562 leukemia, with EKVX NSCLC and in the experiment on HCT-15 colon was above 100 µM each time. The TGI in the experiment on HOP-62 NSCLC and in the experiment on SF-539 CNS was above 100 µM each time.
On to `CC(=O)OC1CCn2nnc(CO)c21` (configuration not stated), for which the TGI with TK-10 renal, with UACC-62 melanoma, with K-562 leukemia, with EKVX NSCLC, in the experiment on HCT-15 colon and in the experiment on SF-539 CNS was above 100 µM in each case.
Take `CNC/C(Cl)=N/S(=O)(=O)c1ccc(C)cc1`: the TGI with TK-10 renal is 28.6 µM; in the experiment on UACC-62 melanoma it was 21.9 µM; in the experiment with LOX IMVI melanoma, 27.3 µM; in the experiment on K-562 leukemia, above 100 µM; in the experiment with EKVX NSCLC, 40.4 µM; with HCT-15 colon, above 100 µM. The TGI in the experiment with HOP-62 NSCLC stood at 29.9 µM; in the experiment on SF-539 CNS, 39.7 µM; with A498 renal it was 54.4 µM.
Take `COc1ccc(C(=O)C(C(=O)CC(=O)Nc2cccc(C(F)(F)F)c2)c2ccc(OC)cc2)cc1` (configuration not stated): the TGI in the experiment on UACC-62 melanoma, with HL-60(TB) leukemia, with K-562 leukemia, in the experiment on EKVX NSCLC, with HCT-15 colon and with HOP-62 NSCLC was above 100 µM throughout. For the same molecule, the TGI with SF-539 CNS and in the experiment on A498 renal was above 100 µM throughout.
Regarding `COc1ccc(-c2cc(-c3cccn3C)c(C#N)c(=O)[nH]2)cc1OC`, the GI50 is above 100 µM in the experiment with TK-10 renal; 65.5 µM in the experiment on UACC-62 melanoma; above 100 µM in the experiment with LOX IMVI melanoma; above 100 µM in the experiment with K-562 leukemia; 30.7 µM in the experiment with EKVX NSCLC; above 100 µM in the experiment on HCT-15 colon. Also, the GI50 was above 100 µM in the experiment on HOP-62 NSCLC, 66.8 µM in the experiment on SF-539 CNS and 56.6 µM in the experiment on A498 renal. Further, the TGI in the experiment with TK-10 renal, with UACC-62 melanoma, with LOX IMVI melanoma, in the experiment on K-562 leukemia, with EKVX NSCLC and in the experiment with HCT-15 colon was above 100 µM each time. Further, the TGI with HOP-62 NSCLC, with SF-539 CNS and with A498 renal was above 100 µM in each case.
For `Cn1nc(-c2ccccc2)c(C(=O)/C=C/c2ccc(Cl)cc2)c(N2CCCCC2)c1=O`, the TGI with TK-10 renal turned out to be 14.3 µM; with UACC-62 melanoma, 5.82 µM; in the experiment on LOX IMVI melanoma, 6.09 µM; in the experiment on HL-60(TB) leukemia it was 4 µM; in the experiment with K-562 leukemia it was 5.39 µM; in the experiment with EKVX NSCLC, 15.3 µM. Moreover, the TGI in the experiment with HCT-15 colon was found to be 15 µM; with HOP-62 NSCLC, 5.68 µM; in the experiment with SF-539 CNS it was 2.98 µM.
With `COC(=O)C1=C(O)c2cc(-c3ccccc3)c(-c3ccccc3)c(C#N)c2NC(=O)C1`, the TGI in the experiment with UACC-62 melanoma is above 100 µM; with K-562 leukemia, above 100 µM; with EKVX NSCLC it was above 100 µM; in the experiment on HCT-15 colon, above 100 µM; with HOP-62 NSCLC, 96.8 µM; in the experiment with SF-539 CNS, above 100 µM. The molecule also had a TGI with A498 renal above 100 µM.
For the molecule `CC1=C(C(=O)Nc2ccc(Cl)c(Cl)c2)C(c2cccc(Cl)c2)NC(=O)N1` (configuration not stated), the GI50 in the experiment with TK-10 renal is 0.22 µM; in the experiment with UACC-62 melanoma it was 5.9 µM; in the experiment on LOX IMVI melanoma, 7.66 µM; in the experiment on HL-60(TB) leukemia it was 10.6 µM; in the experiment on K-562 leukemia it was 13.6 µM; in the experiment on EKVX NSCLC, 7.84 µM. In addition, the GI50 in the experiment on HCT-15 colon was 9.06 µM; with HOP-62 NSCLC it was 10.4 µM; in the experiment on SF-539 CNS, 6.48 µM. In addition, the TGI with TK-10 renal is 0.346 µM; with UACC-62 melanoma, 12.3 µM; with LOX IMVI melanoma, 16.2 µM; with HL-60(TB) leukemia, above 35.7 µM; in the experiment with K-562 leukemia it was 48.4 µM; in the experiment with EKVX NSCLC, 16.2 µM. In addition, the TGI amounted to 19.2 µM in the experiment with HCT-15 colon, 20.5 µM in the experiment with HOP-62 NSCLC and 13.2 µM in the experiment with SF-539 CNS.
For `NC(=O)CCC(Nc1c2ccccc2nc2ccccc12)C(=O)O` (configuration not stated), the TGI with TK-10 renal, in the experiment on LOX IMVI melanoma, in the experiment on HL-60(TB) leukemia, with K-562 leukemia, in the experiment on EKVX NSCLC and in the experiment with HCT-15 colon was above 100 µM in each case. Besides, the TGI with SF-539 CNS is above 100 µM.
Turning to `NC[C@H]1Nc2ccccc2[C@@H](O)C1O` (some centres not stated), the TGI with TK-10 renal, in the experiment with UACC-62 melanoma, in the experiment with LOX IMVI melanoma, in the experiment with HL-60(TB) leukemia, with K-562 leukemia and with EKVX NSCLC was above 100 µM each time. Further, the TGI in the experiment on HCT-15 colon, with HOP-62 NSCLC and in the experiment with SF-539 CNS was above 100 µM in each case.
On to `COc1cc(Nc2nc3ccccc3nc2NS(=O)(=O)c2ccc(NC(=O)c3ccc(C)c(OC)c3)cc2)cc(OC)c1`, for which the TGI in the experiment with TK-10 renal was 37.6 µM and 54.1 µM and > 6.03 µM; in the experiment on LOX IMVI melanoma, above 100 µM; with HL-60(TB) leukemia it was 38 µM and 52.9 µM and > 8.02 µM; in the experiment with K-562 leukemia, > 100 µM and 46.4 µM and > 10 µM; with HCT-15 colon it was above 100 µM; in the experiment with HOP-62 NSCLC it was 25.9 µM and > 100 µM and > 9.23 µM. For the same molecule, in the experiment with SF-539 CNS, the TGI is > 100 µM and 73.7 µM and > 6.59 µM. In addition, the GI50 in the experiment on K-562 leukemia was 5.34 µM and 18.7 µM and > 5.29 µM; with EKVX NSCLC, 4.62 µM and 0.935 µM; in the experiment with HCT-15 colon, 4.97 µM and 19.9 µM and 2 µM.
Consider `O=C(O)Cc1cc(=O)[nH]c2c1/C(=N/O)CCC2`, for which the TGI in the experiment on TK-10 renal, with HL-60(TB) leukemia, in the experiment with K-562 leukemia, with EKVX NSCLC, in the experiment with HCT-15 colon and in the experiment on SF-539 CNS was above 100 µM in each case.
Regarding `O=C1CC(=O)N(C(=O)c2nn(-c3ccc(Cl)cc3)cc2O)N1`, the GI50 was 0.35 µM with TK-10 renal; 0.381 µM in the experiment on UACC-62 melanoma; 1.15 µM with LOX IMVI melanoma; 0.751 µM in the experiment with HL-60(TB) leukemia; 0.292 µM in the experiment with K-562 leukemia; 0.845 µM in the experiment on EKVX NSCLC. Besides, the results for the GI50 in the experiment on HCT-15 colon, in the experiment with HOP-62 NSCLC and in the experiment with SF-539 CNS were 0.486 µM, 0.5 µM and 0.371 µM, respectively. In addition, the TGI in the experiment on TK-10 renal was above 65.2 µM; in the experiment with UACC-62 melanoma, 9.41 µM; in the experiment with LOX IMVI melanoma, above 100 µM; in the experiment with HL-60(TB) leukemia, 4.08 µM; with K-562 leukemia, 8.15 µM; with EKVX NSCLC, above 100 µM. Also, the results for the TGI with HCT-15 colon, in the experiment with HOP-62 NSCLC and with SF-539 CNS were above 100 µM, above 100 µM and above 63 µM, respectively.
With `NC1CCC(Nc2nc(NCc3ccc(-c4ccccc4O)nc3)c3ncn(C4CCCC4)c3n2)CC1` (configuration not stated), the GI50 is 0.0306 µM in the experiment on TK-10 renal; below 0.0174 µM in the experiment on UACC-62 melanoma; below 0.01 µM with HL-60(TB) leukemia; 0.0291 µM with EKVX NSCLC; 0.21 µM in the experiment with HCT-15 colon; 0.0157 µM in the experiment on HOP-62 NSCLC. In addition, the GI50 is 0.0625 µM in the experiment on SF-539 CNS and 0.0233 µM in the experiment with A498 renal. Further, the TGI with TK-10 renal stood at 1.33 µM; with UACC-62 melanoma, 0.0593 µM; in the experiment on EKVX NSCLC, 0.474 µM; with HCT-15 colon it was 1.14 µM; in the experiment with HOP-62 NSCLC, 0.0666 µM; in the experiment on SF-539 CNS, 0.267 µM. In addition, the TGI in the experiment on A498 renal was determined as 0.0656 µM.
For the molecule `c1ccc2c(NCCCCCCNc3c4ccccc4nc4ccccc34)c3ccccc3nc2c1`, the TGI is 4.9 µM in the experiment on TK-10 renal; 2.08 µM in the experiment with UACC-62 melanoma; 1.45 µM with LOX IMVI melanoma; above 100 µM in the experiment on K-562 leukemia; 5.69 µM in the experiment on EKVX NSCLC; 16.7 µM in the experiment with HCT-15 colon. Further, the TGI is 2.21 µM in the experiment on HOP-62 NSCLC, 0.835 µM with SF-539 CNS and 2.83 µM in the experiment on A498 renal.
Take `C=C(NC(=O)C(=C)NC(=O)c1csc(C2=NC3c4csc(n4)C4NC(=O)c5csc(n5)C(C(C)(O)C(C)O)NC(=O)C5CSC(=N5)C(=CC)NC(=O)C(C(C)O)NC(=O)c5csc(n5)C3(CC2)NC(=O)C(C)NC(=O)C(=C)NC(=O)C(C)NC(=O)C(C(C)CC)NC2C=Cc3c(C(C)O)cc(nc3C2O)C(=O)OC4C)n1)C(N)=O` (configuration not stated): the GI50 was 65.5 µM with TK-10 renal; 4.34 µM with UACC-62 melanoma; 3.7 µM with LOX IMVI melanoma; 5.13 µM in the experiment with HL-60(TB) leukemia; 32.5 µM in the experiment on EKVX NSCLC; 65.6 µM in the experiment on HCT-15 colon. In addition, the GI50 in the experiment with HOP-62 NSCLC is 22.9 µM; in the experiment on SF-539 CNS, 4.62 µM. Also, the TGI with TK-10 renal was above 100 µM; in the experiment on UACC-62 melanoma, 32.6 µM; in the experiment with LOX IMVI melanoma, above 100 µM; in the experiment on HL-60(TB) leukemia, 31.7 µM; in the experiment with EKVX NSCLC it was above 100 µM; in the experiment with HCT-15 colon, above 100 µM. Also, the TGI in the experiment with HOP-62 NSCLC was above 100 µM; with SF-539 CNS, 42.9 µM.
For `COC(=O)CC[C@]1(C)O[C@H]2[C@H]([C@@H](C)CCCC(C)=O)OC(=O)[C@@H]2C[C@H]1O`, the GI50 was 68.7 µM in the experiment with TK-10 renal; above 100 µM in the experiment on UACC-62 melanoma; above 100 µM in the experiment with LOX IMVI melanoma; above 100 µM in the experiment with HL-60(TB) leukemia; above 100 µM in the experiment on K-562 leukemia; above 100 µM in the experiment on EKVX NSCLC. The values for the GI50 in the experiment on HCT-15 colon and with SF-539 CNS were above 100 µM and 84.9 µM, respectively. For the same molecule, the TGI in the experiment with TK-10 renal, with UACC-62 melanoma, in the experiment on LOX IMVI melanoma, in the experiment on HL-60(TB) leukemia, with K-562 leukemia and in the experiment on EKVX NSCLC was above 100 µM throughout. The TGI in the experiment with HCT-15 colon and with SF-539 CNS was above 100 µM each time.
`COc1ccc(/C(=N\NC(=O)C(=O)NN)C(c2ccc(OC)cc2)C2(O)C(=O)Nc3ccccc32)cc1` (configuration not stated): the TGI with TK-10 renal, in the experiment on UACC-62 melanoma, with K-562 leukemia, with EKVX NSCLC, with HCT-15 colon and with HOP-62 NSCLC was above 100 µM in each case. For the same molecule, the TGI in the experiment on SF-539 CNS and in the experiment on A498 renal was above 100 µM in each case.

The values above are taken from PubChem BioAssay (NCI).
